{"source": "patent US8071772B2", "about": "“Spirolactam bicyclic CGRP receptor antagonists” (Merck Sharp & Dohme Corp., priority 2005, dated 2011)", "origin": "cited, not measured here", "key": {"facial blood flow [1]": {"test_system": "facial blood flow", "settings": "marmoset; Doods et al. 2000"}, "[2]": {"test_system": "diameter of the middle meningeal artery", "settings": "rat, prior administration; Williamson et al. 1997"}, "facial blood flow [3]": {"test_system": "facial blood flow", "settings": "rat; Escott et al. 1995"}}, "note": "No end group written: not given here.", "data": [{"compound": "NCCCC[C@H](NC(=O)[C@@H](Cc1cc(Br)c(O)c(Br)c1)NC(=O)N1CCC(N2Cc3ccccc3NC2=O)CC1)C(=O)N1CCN(c2ccncc2)CC1", "note": "[BIBN4096BS]", "values": [{"measurement": "effect on increase in facial blood flow", "setting": "facial blood flow [1]", "value": "blocked"}]}, {"compound": "CGRP(8-37): a peptide CGRP antagonist; fragment of CGRP that lacks seven N-terminal amino acid residues (VTHRLAGLLSRSGGVVKNNFVPTNVGSKAF; ends and bridges not checked; UniProt P06881 90-119, looked up, fragment)", "values": [{"measurement": "effect on increase of middle meningeal artery diameter", "setting": "[2]", "value": "blocked"}, {"measurement": "effect on increased facial blood flow", "setting": "facial blood flow [3]", "value": "inhibited"}]}]}
